In ChEMBL document CHEMBL1201862, “PubChem BioAssay data set” (2004):
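The compound was tested at five concentrations on cells cultured in 96-well plates, with a 48-hour exposure period. GI50 is the concentration that inhibits growth by half.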 The source made the active and inactive calls. No stated cut-off is given here; in the data, active = GI50 up to about 1.1 µM and inactive = higher.

Legend:
Test in all cases: DTP human tumour cell line panel, 48 h
[1] = tested on: BT-549
[2] = tested on: CAKI-1
[3] = tested on: COLO 205
[4] = tested on: HL-60
[5] = tested on: IGROV-1
[6] = tested on: K562
[7] = tested on: MCF7
[8] = tested on: MDA-MB-231
[9] = tested on: MDA-N
[10] = tested on: NCI-H522
[11] = tested on: PC-3
[12] = tested on: SF-268
[13] = tested on: SF-295
[14] = tested on: SNB-19
[15] = tested on: SNB-75
[16] = tested on: SR
[17] = tested on: SW-620
[18] = tested on: T47D
[19] = tested on: U-251
[20] = tested on: UO-31

Compound | GI50 [1] | GI50 [2] | GI50 [3] | GI50 [4] | GI50 [5] | GI50 [6] | GI50 [7] | GI50 [8] | GI50 [9] | GI50 [10] | GI50 [11] | GI50 [12] | GI50 [13] | GI50 [14] | GI50 [15] | GI50 [16] | GI50 [17] | GI50 [18] | GI50 [19] | GI50 [20]
O=C1C(Cl)=C(N2CCN(c3ncccn3)CC2)C(=O)c2c(O)ccc(O)c21 | 2.14 µM (inactive) | 2.05 µM (inactive) | 1.75 µM (inactive) | 0.0515 µM (active) | 1.9 µM (inactive) | 1.45 µM (inactive) | 1.51 µM (inactive) | 2.15 µM (inactive) | 1.78 µM (inactive) | 2.2 µM (inactive) | 3.1 µM (inactive) | 3.15 µM (inactive) | 12.4 µM (inactive) | 6.55 µM (inactive) | 9.02 µM (inactive) | 0.265 µM (active) | 1.36 µM (inactive) | 2.64 µM (inactive) | 3.63 µM (inactive) | 2.07 µM (inactive)
N=C(N)NS(=O)(=O)c1ccc(NC(=O)c2ccc3nc4ccccc4c(O)c3c2)cc1 | > 100 µM (inactive) | > 100 µM (inactive) | > 100 µM (inactive) | > 100 µM (inactive) | > 100 µM (inactive) | > 100 µM (inactive) | > 100 µM (inactive) | > 100 µM (inactive) | > 100 µM (inactive) | > 100 µM (inactive) | > 100 µM (inactive) | > 100 µM (inactive) | > 100 µM (inactive) | > 100 µM (inactive) | > 100 µM (inactive) | > 100 µM (inactive) | > 100 µM (inactive) | > 100 µM (inactive) | > 100 µM (inactive) | > 100 µM (inactive)
CCC1(O)C(=O)OCc2c1cc1n(c2=O)Cc2cc3ccc(C=O)cc3nc2-1 (stereo unspecified) | 2.28 µM (inactive) | 1.73 µM (inactive) | 9.08 µM (inactive) | 1.36 µM (inactive) | 8.09 µM (inactive) | 1.91 µM (inactive) | 0.335 µM (active) | 22.4 µM (inactive) | 5.56 µM (inactive) | – | 5.53 µM (inactive) | 0.321 µM (active) | 3.23 µM (inactive) | 2.04 µM (inactive) | 1.36 µM (inactive) | < 0.013 µM (active) | 1.03 µM (active) | 0.655 µM (active) | 0.637 µM (active) | 1.83 µM (inactive)
CC(C)C1C(=O)N2CCCC2C2(O)OC(NC(=O)C3C=C4c5cccc6[nH]cc(c56)CC4N(C)C3)(C(C)C)C(=O)N12 (stereo unspecified) | 25.4 µM (inactive) | 16.7 µM (inactive) | 20.7 µM (inactive) | 27 µM (inactive) | 14.9 µM (inactive) | – | 35.8 µM (inactive) | 15.9 µM (inactive) | 25 µM (inactive) | 21 µM (inactive) | 21.1 µM (inactive) | 41.1 µM (inactive) | 28.2 µM (inactive) | 44.4 µM (inactive) | 15.3 µM (inactive) | 32.4 µM (inactive) | 30.1 µM (inactive) | 47.6 µM (inactive) | 26.4 µM (inactive) | 13.5 µM (inactive)
CC(=O)NC(CSC1=C2NC(=O)\C=C/C=C\C=C/C(C)C(O)CC(=O)/C(C)=C\CC(O)/C=C\C(C)C(O)C(C)C=C(C)C(=O)c3c(O)c(C)cc(c3C1=O)C2=O)C(=O)O (stereo unspecified) | > 100 µM (inactive) | > 100 µM (inactive) | 21.7 µM (inactive) | 23.6 µM (inactive) | 43.1 µM (inactive) | 39.1 µM (inactive) | 53.3 µM (inactive) | 24.6 µM (inactive) | 51.4 µM (inactive) | 17.3 µM (inactive) | > 100 µM (inactive) | – | > 100 µM (inactive) | 61.4 µM (inactive) | 28.6 µM (inactive) | 33.5 µM (inactive) | 45.7 µM (inactive) | 91 µM (inactive) | 43.2 µM (inactive) | > 100 µM (inactive)
O=C(O)COc1cc(-c2ccccc2F)nc2cc3c(cc12)OCO3 | 98.6 µM (inactive) | > 100 µM (inactive) | > 100 µM (inactive) | – | > 100 µM (inactive) | > 100 µM (inactive) | > 100 µM (inactive) | > 100 µM (inactive) | > 100 µM (inactive) | – | > 100 µM (inactive) | > 100 µM (inactive) | > 100 µM (inactive) | – | > 100 µM (inactive) | > 100 µM (inactive) | > 100 µM (inactive) | > 100 µM (inactive) | > 100 µM (inactive) | –
Cc1c2c(n(CCc3ccccc3)c1C)NN=C(C#N)S2(=O)=O | > 100 µM (inactive) | – | > 100 µM (inactive) | – | > 100 µM (inactive) | > 100 µM (inactive) | > 100 µM (inactive) | > 100 µM (inactive) | > 100 µM (inactive) | 71.1 µM (inactive) | > 100 µM (inactive) | > 100 µM (inactive) | – | > 100 µM (inactive) | > 100 µM (inactive) | 6.53 µM (inactive) | > 100 µM (inactive) | > 100 µM (inactive) | > 100 µM (inactive) | > 100 µM (inactive)
CC(=O)CC(=O)N1CCOC1=O | > 10 µM (inactive) | > 10 µM (inactive) | > 10 µM (inactive) | > 10 µM (inactive) | > 10 µM (inactive) | > 10 µM (inactive) | > 10 µM (inactive) | > 10 µM (inactive) | > 10 µM (inactive) | – | > 10 µM (inactive) | > 10 µM (inactive) | > 10 µM (inactive) | > 10 µM (inactive) | 5.26 µM (inactive) | > 10 µM (inactive) | > 10 µM (inactive) | > 10 µM (inactive) | > 10 µM (inactive) | > 10 µM (inactive)
COc1ccc(C2=Nn3c(nc4sc5c(c4c3=O)CCCC5)SC2)cc1 | > 100 µM (inactive) | > 100 µM (inactive) | > 100 µM (inactive) | > 100 µM (inactive) | > 100 µM (inactive) | > 100 µM (inactive) | > 100 µM (inactive) | > 100 µM (inactive) | > 100 µM (inactive) | > 100 µM (inactive) | > 100 µM (inactive) | > 100 µM (inactive) | > 100 µM (inactive) | – | > 10 µM (inactive) | > 100 µM (inactive) | > 100 µM (inactive) | > 100 µM (inactive) | > 100 µM (inactive) | > 100 µM (inactive)
COc1ccc(OC)c(C[P+](c2ccccc2)(c2ccccc2)c2ccccc2)c1 | 2.06 µM (inactive) | 23.4 µM (inactive) | 1.1 µM (active) | 0.434 µM (active) | 0.971 µM (active) | 0.445 µM (active) | 2.11 µM (inactive) | 3.27 µM (inactive) | 0.753 µM (active) | 9.23 µM (inactive) | 1.57 µM (inactive) | 3.72 µM (inactive) | 3.96 µM (inactive) | 2.67 µM (inactive) | 3.71 µM (inactive) | 0.601 µM (active) | 2.61 µM (inactive) | 2.87 µM (inactive) | – | 21.6 µM (inactive)
COc1cc(O)c2c(=O)c(OC)c(-c3ccc4c(c3)OCO4)oc2c1 | 4.04 µM (inactive) | – | > 100 µM (inactive) | > 100 µM (inactive) | > 52 µM (inactive) | – | > 100 µM (inactive) | > 37.3 µM (inactive) | > 100 µM (inactive) | 6.53 µM (inactive) | > 100 µM (inactive) | 4.31 µM (inactive) | 14.4 µM (inactive) | 5.66 µM (inactive) | 5.9 µM (inactive) | > 100 µM (inactive) | > 100 µM (inactive) | > 100 µM (inactive) | 9.27 µM (inactive) | > 100 µM (inactive)
O=c1ccc2[n+]([O-])c3ccc(O)cc3oc-2c1 [RESAZURIN] | 10.7 µM (inactive) | 32.5 µM (inactive) | 12.9 µM (inactive) | 23.1 µM (inactive) | 25.2 µM (inactive) | 10.5 µM (inactive) | 4.95 µM (inactive) | 29.6 µM (inactive) | 1.84 µM (inactive) | 12.1 µM (inactive) | 7.23 µM (inactive) | 19.2 µM (inactive) | 7.41 µM (inactive) | – | 3.45 µM (inactive) | 15.3 µM (inactive) | 11.5 µM (inactive) | 56.4 µM (inactive) | 9.68 µM (inactive) | 1.93 µM (inactive)
CC(=O)OCC1OC(n2cnc(C(N)=S)c2N)C(OC(C)=O)C1OC(C)=O (stereo unspecified) | > 100 µM (inactive) | > 100 µM (inactive) | > 100 µM (inactive) | > 100 µM (inactive) | > 100 µM (inactive) | – | > 100 µM (inactive) | > 100 µM (inactive) | > 100 µM (inactive) | > 100 µM (inactive) | > 100 µM (inactive) | > 100 µM (inactive) | > 100 µM (inactive) | > 100 µM (inactive) | > 100 µM (inactive) | > 100 µM (inactive) | > 100 µM (inactive) | > 100 µM (inactive) | > 100 µM (inactive) | > 100 µM (inactive)
COC(=O)c1ccccc1/C=C1/Cc2cccc(C)c2C1=O | 93.8 µM (inactive) | 69.3 µM (inactive) | > 100 µM (inactive) | > 100 µM (inactive) | > 100 µM (inactive) | > 100 µM (inactive) | > 100 µM (inactive) | > 100 µM (inactive) | > 100 µM (inactive) | > 100 µM (inactive) | > 100 µM (inactive) | 73.1 µM (inactive) | 42 µM (inactive) | – | 35.4 µM (inactive) | > 100 µM (inactive) | > 100 µM (inactive) | 42.5 µM (inactive) | 31 µM (inactive) | > 100 µM (inactive)
Clc1ccc(Nc2ncco2)cc1Cl | > 10 µM (inactive) | > 10 µM (inactive) | > 10 µM (inactive) | – | > 10 µM (inactive) | > 10 µM (inactive) | > 10 µM (inactive) | > 10 µM (inactive) | > 10 µM (inactive) | > 10 µM (inactive) | > 10 µM (inactive) | > 10 µM (inactive) | > 10 µM (inactive) | > 10 µM (inactive) | > 10 µM (inactive) | > 10 µM (inactive) | > 10 µM (inactive) | > 10 µM (inactive) | > 10 µM (inactive) | > 10 µM (inactive)
